In patent publication US20250215029A1 (Recludix Pharma, Inc., priority 2022, published 2025):
Where two headings read alike, the source gives them in different places.

Experiments:
[1] = molecular target: T1, Recombinant STAT3 protein (STAT3 (G127-I722)) (Homo sapiens, UniProt P40763); experiment: STAT3 Fluorescence Polarization (FP) Assay; format: binding; conditions: probe 5-FAM-GpYLPQTV-NH2 2 nM, 45-minute incubation
T1 construct: Recombinant STAT3 protein (STAT3 (G127-I722))
How it was run: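 Displacement of a 2 nM 5-FAM-labelled pY peptide (GpYLPQTV) from 25 nM recombinant STAT3 (G127-I722) was monitored by fluorescence polarization. Incubation lasted 45 min at room temperature in pH 7.4 HEPES buffer containing 1% DMSO.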

[2] = molecular target: T2, Recombinant STAT6 protein (STAT6 (W123-T658)) (Homo sapiens, UniProt P42226); experiment: STAT6 Fluorescence Polarization (FP) Assay; format: binding; conditions: probe 5-FAM-Ap[…]-NH2 2 nM, 45-minute incubation
T2 construct: Recombinant STAT6 protein (STAT6 (W123-T658))
T2 sequence (P42226 123-658): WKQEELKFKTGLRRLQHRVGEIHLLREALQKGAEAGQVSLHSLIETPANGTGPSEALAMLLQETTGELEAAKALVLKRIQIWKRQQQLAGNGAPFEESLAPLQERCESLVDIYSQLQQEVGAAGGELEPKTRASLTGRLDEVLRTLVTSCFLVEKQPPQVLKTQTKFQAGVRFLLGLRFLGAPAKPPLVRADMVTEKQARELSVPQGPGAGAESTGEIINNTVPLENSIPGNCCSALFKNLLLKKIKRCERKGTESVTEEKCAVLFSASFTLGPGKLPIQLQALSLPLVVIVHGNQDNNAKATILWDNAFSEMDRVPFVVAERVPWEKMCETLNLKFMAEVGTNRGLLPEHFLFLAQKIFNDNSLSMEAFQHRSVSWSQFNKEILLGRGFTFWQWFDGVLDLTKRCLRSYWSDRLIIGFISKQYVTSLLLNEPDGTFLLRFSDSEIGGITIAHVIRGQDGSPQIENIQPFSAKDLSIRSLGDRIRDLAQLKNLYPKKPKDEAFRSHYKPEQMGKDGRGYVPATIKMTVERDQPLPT
How it was run: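 STAT6 (W123-T658) at 250 nM was mixed with 2 nM 5-FAM-labeled phosphotyrosine peptide probe in HEPES pH 7.4 buffer with NaCl, EDTA, Tween 20 and DTT, then added to serially diluted compounds at 1% DMSO final. Polarization was read after 45 min at room temperature; IC50 came from nonlinear regression of mP versus log concentration.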

[3] = STAT3 (G127-I722) 25 nM, read-out: STAT3 (FP assay IC50 class)
[4] = STAT6 (W123-T658) 250 nM, read-out: STAT6 (FP assay IC50 class)
[5] = STAT3 25 nM, read-out: STAT3 (FP assay IC50)
[6] = STAT6 250 nM, read-out: STAT6 (FP assay IC50)

T1 sequence (P40763 127-722): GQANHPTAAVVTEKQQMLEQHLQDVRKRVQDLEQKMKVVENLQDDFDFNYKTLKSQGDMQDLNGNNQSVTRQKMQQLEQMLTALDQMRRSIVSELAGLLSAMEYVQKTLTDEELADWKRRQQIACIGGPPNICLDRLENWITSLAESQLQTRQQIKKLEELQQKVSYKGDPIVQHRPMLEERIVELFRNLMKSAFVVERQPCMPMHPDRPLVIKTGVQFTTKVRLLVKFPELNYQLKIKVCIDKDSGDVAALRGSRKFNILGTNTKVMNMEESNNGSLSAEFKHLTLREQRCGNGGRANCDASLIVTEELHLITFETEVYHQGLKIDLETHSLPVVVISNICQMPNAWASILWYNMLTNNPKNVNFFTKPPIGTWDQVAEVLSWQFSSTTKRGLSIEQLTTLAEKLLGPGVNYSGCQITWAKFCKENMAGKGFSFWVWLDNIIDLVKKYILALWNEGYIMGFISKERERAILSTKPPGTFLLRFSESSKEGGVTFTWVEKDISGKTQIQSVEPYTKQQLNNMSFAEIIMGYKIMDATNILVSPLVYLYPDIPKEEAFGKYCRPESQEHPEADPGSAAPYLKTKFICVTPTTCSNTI

| SMILES | IC50 [1, 3] | IC50 [2, 4] | IC50 [1, 5] | IC50 [2, 6] |
| --- | --- | --- | --- | --- |
| CN(CCc1cc[nH]c(=O)c1)C(=O)[C@@H]1CC[C@@H]2CCCC[C@H](NC(=O)c3cc4cc(C(F)(F)P(=O)(O)O)ccc4s3)C(=O)N21 [Compound 788, (difluoro(2-(((3S,6S,10aS)-3-(methyl(2-(2-oxo-1,2-dihydropyridin-4-yl)ethyl)carbamoyl)-5-oxodecahydropyrrolo [1,2-a]azocin-6-yl)carbamoyl)benzo [b]thiophen-5-yl)methyl) phosphonic acid] | 1 to 10 µM | 0.3 to 3 µM | – | – |
| O=C(N[C@H]1CCCC[C@H]2CC[C@@H](C(=O)N3CCc4c(cc[nH]c4=O)C3)N2C1=O)c1cc2cc(C(F)(F)P(=O)(O)O)ccc2s1 [Compound 48, (difluoro(2-(((3S,6S,10aS)-5-oxo-3-(5-oxo-1,2,3,4,5,6-hexahydro-2,6-naphthyridine-2-carbonyl)decahydropyrrolo [1,2-a]azocin-6-yl)carbamoyl)benzo[b]thiophen-5-yl)methyl) phosphonic acid] | – | – | 1 to 10 µM | 3 to 30 µM |
| N#C[C@@H]1CN(C(=O)[C@@H]2CC[C@@H]3CCCC[C@H](NC(=O)c4cc5cc(C(F)P(=O)(O)O)ccc5s4)C(=O)N32)C[C@H]1c1ccccc1 (single isomer, unassigned) [Compound 224] | 1 to 10 µM | ≤ 0.3 µM | – | – |
| Cn1ccc(C2CCN(C(=O)[C@@H]3CC[C@@H]4CCCC[C@H](NC(=O)c5ccc6ccc(C(F)P(=O)(O)O)cc6c5)C(=O)N43)C2)cc1=O (stereo partly drawn) [Compound 899, (fluoro(7-(((3S,6S,10aS)-3-(3-(1-methyl-2-oxo-1,2-dihydropyridin-4-yl)pyrrolidine-1-carbonyl)-5-oxodecahydropyrrolo [1,2-a]azocin-6-yl)carbamoyl)naphthalen-2-yl)methyl) phosphonic acid] | 1 to 10 µM | 0.3 to 3 µM | – | – |
| O=C(N[C@H]1CCC[C@H]2CC[C@@H](C(=O)N3CC(c4cnccc4-n4ccnc4)C3)N2C1=O)c1cc2cc([C@@H](F)P(=O)(O)O)ccc2s1 [Compound 853, ((S)-(2-(((3S,6S,9aS)-3-(3-(4-(1H-imidazol-1-yl)pyridin-3-yl)azetidine-1-carbonyl)-5-oxooctahydro-1H-pyrrolo[1,2-a]azepin-6-yl)carbamoyl)benzo [b]thiophen-5-yl)fluoromethyl) phosphonic acid] | 1 to 10 µM | 3 to 30 µM | – | – |
| O=C(/C=C/c1ccc(C(F)(F)P(=O)(O)O)cc1)N[C@H]1CCC[C@H]2CC[C@@H](C(=O)Nc3ccc(-c4ccccc4)cc3)N2C1=O [Compound 35, ((4-((E)-3-(((3S,6S,9S)-3-([1,1′-biphenyl]-4-ylcarbamoyl)-5-oxooctahydro-1H-pyrrolo[1,2-a]azepin-6-yl)amino)-3-oxoprop-1-en-1-yl)phenyl)difluoromethyl) phosphonic acid] | – | – | > 10 µM | 3 to 30 µM |
| O=C(N[C@H]1CCCC[C@H]2CC[C@@H](C(=O)N3CCC(c4ccncn4)CC3)N2C1=O)c1cc2cc(C(F)P(=O)(O)O)ccc2s1 (stereo partly drawn) [Compound 590, (fluoro(2-(((3S,6S,10aS)-5-oxo-3-(4-(pyrimidin-4-yl)piperidine-1-carbonyl)decahydropyrrolo[1,2-a]azocin-6-yl)carbamoyl)benzo[b]thiophen-5-yl)methyl)phosphonic acid] | 1 to 10 µM | 3 to 30 µM | – | – |
| O=C(N[C@H]1CCC[C@H]2CC[C@@H](C(=O)N3CC(c4cnccc4N4C5COCC4C5)C3)N2C1=O)c1cc2cc(C(F)P(=O)(O)O)ccc2s1 (stereo partly drawn) [Compound 671, ((2-(((3S,6S,9aS)-3-(3-(4-(3-oxa-6-azabicyclo[3.1.1]heptan-6-yl)pyridin-3-yl)azetidine-1-carbonyl)-5-oxooctahydro-1H-pyrrolo[1,2-a]azepin-6-yl)carbamoyl)benzo [b]thiophen-5-yl)fluoromethyl) phosphonic acid] | < 0.1 µM | 0.3 to 3 µM | – | – |
| N#Cc1ccncc1C1CN(C(=O)[C@@H]2CC[C@@H]3CCC[C@H](NC(=O)c4cc5cc(CP(=O)(O)O)ccc5s4)C(=O)N32)C1 [Compound 520, ((2-(((3S,6S,9aS)-3-(3-(4-cyanopyridin-3-yl)azetidine-1-carbonyl)-5-oxooctahydro-1H-pyrrolo[1,2-a]azepin-6-yl)carbamoyl)benzo[b]thiophen-5-yl)methyl)phosphonic acid] | 1 to 10 µM | 3 to 30 µM | – | – |

Second part, the molecule after the results:

| IC50 [1, 3] | IC50 [2, 4] | IC50 [1, 5] | IC50 [2, 6] | SMILES |
| --- | --- | --- | --- | --- |
| < 0.1 µM | 3 to 30 µM | – | – | COc1c(C2CN(C(=O)[C@@H]3CC[C@@H]4CCC[C@H](NC(=O)c5cc6cc(C(F)P(=O)(O)O)ccc6s5)C(=O)N43)C2)ccnc1C#N (stereo partly drawn) [Compound 932, ((2-(((3S,6S,9aS)-3-(3-(2-cyano-3-methoxypyridin-4-yl)azetidine-1-carbonyl)-5-oxooctahydro-1H-pyrrolo[1,2-a]azepin-6-yl)carbamoyl)benzo [b]thiophen-5-yl)fluoromethyl) phosphonic acid] |
| 0.1 to 1 µM | 3 to 30 µM | – | – | O=C(N[C@H]1CCC[C@H]2CC[C@@H](C(=O)N3CCC(c4ccncn4)CC3)N2C1=O)c1cc2cc(C(F)P(=O)(O)O)ccc2s1 (stereo partly drawn) [Compound 604, (fluoro(2-(((3S,6S,9aS)-5-oxo-3-(4-(pyrimidin-4-yl)piperidine-1-carbonyl)octahydro-1H-pyrrolo[1,2-a]azepin-6-yl)carbamoyl)benzo [b]thiophen-5-yl)methyl) phosphonic acid] |
| 0.1 to 1 µM | 3 to 30 µM | – | – | O=C(N[C@H]1CCCC[C@H]2CC[C@@H](C(=O)N3CC(N4CCS(=O)(=O)CC4)C3)N2C1=O)c1cc2cc(C(F)P(=O)(O)O)ccc2s1 (stereo partly drawn) [Compound 573, ((2-(((3S,6S,10aS)-3-(3-(1,1-dioxidothiomorpholino)azetidine-1-carbonyl)-5-oxodecahydropyrrolo[1,2-a]azocin-6-yl)carbamoyl)benzo[b]thiophen-5-yl)fluoromethyl)phosphonic acid] |
| < 0.1 µM | 0.3 to 3 µM | – | – | Cc1cc(C#N)ccc1C1CN(C(=O)[C@@H]2CC[C@@H]3CCCC[C@H](NC(=O)c4cc5cc(C(F)(F)P(=O)(O)O)ccc5s4)C(=O)N32)C1 [Compound 1110, ((2-(((3S,6S,10aS)-3-(3-(4-cyano-2-methylphenyl)azetidine-1-carbonyl)-5-oxodecahydropyrrolo[1,2-a]azocin-6-yl)carbamoyl)benzo[b]thiophen-5-yl)difluoromethyl)phosphonic acid] |
| 0.1 to 1 µM | 3 to 30 µM | – | – | O=C(N[C@H]1CCC[C@H]2CC[C@@H](C(=O)N3CC(n4cccn4)C3)N2C1=O)c1cc2cc(C(F)P(=O)(O)O)ccc2s1 (stereo partly drawn) [Compound 613, ((2-(((3S,6S,9aS)-3-(3-(1H-pyrazol-1-yl)azetidine-1-carbonyl)-5-oxooctahydro-1H-pyrrolo[1,2-a]azepin-6-yl)carbamoyl)benzo [b]thiophen-5-yl)fluoromethyl) phosphonic acid] |
| < 0.1 µM | 3 to 30 µM | – | – | COc1ccncc1C1CN(C(=O)[C@@H]2CC[C@@H]3CCCC[C@H](NC(=O)c4cc5cc(C(F)P(=O)(O)O)ccc5s4)C(=O)N32)C1 (stereo partly drawn) [Compound 236, (fluoro(2-(((3S,6S,10aS)-3-(3-(4-methoxypyridin-3-yl)azetidine-1-carbonyl)-5-oxodecahydropyrrolo[1,2-a]azocin-6-yl)carbamoyl)benzo[b]thiophen-5-yl)methyl)phosphonic acid] |
| < 0.1 µM | 3 to 30 µM | – | – | Cc1nccnc1C1CN(C(=O)[C@@H]2CC[C@@H]3CCC[C@H](NC(=O)c4cc5cc(C(F)(F)P(=O)(O)O)ccc5s4)C(=O)N32)C1 [Compound 648, (difluoro(2-(((3S,6S,9aS)-3-(3-(3-methylpyrazin-2-yl)azetidine-1-carbonyl)-5-oxooctahydro-1H-pyrrolo[1,2-a]azepin-6-yl)carbamoyl)benzo [b]thiophen-5-yl)methyl) phosphonic acid] |
| < 0.1 µM | 0.3 to 3 µM | – | – | O=C(N[C@H]1CCC[C@H]2CC[C@@H](C(=O)N3CCN(c4cccnc4)CC34CC4)N2C1=O)c1cc2cc(C(F)(F)P(=O)(O)O)ccc2s1 [Compound 1125, (difluoro(2-(((3S,6S,9aS)-5-oxo-3-(7-(pyridin-3-yl)-4,7-diazaspiro[2.5]octane-4-carbonyl)octahydro-1H-pyrrolo[1,2-a]azepin-6-yl)carbamoyl)benzo[b]thiophen-5-yl)methyl)phosphonic acid] |
